{"source": "patent US8877801B2", "about": "“Compounds and compositions as selective estrogen receptor degraders” (Novartis AG, priority 2013, dated 2014)", "note": "pIC50: −log10 of the molar value."}
{"molecular_target": "T1, ER (Homo sapiens, UniProt P03372)", "T1 construct": "transfected in MCF7 cells (containing endogenous ER); endogenous in cells; host or cells: MCF7 cells", "T1 sequence (P03372 1-595)": "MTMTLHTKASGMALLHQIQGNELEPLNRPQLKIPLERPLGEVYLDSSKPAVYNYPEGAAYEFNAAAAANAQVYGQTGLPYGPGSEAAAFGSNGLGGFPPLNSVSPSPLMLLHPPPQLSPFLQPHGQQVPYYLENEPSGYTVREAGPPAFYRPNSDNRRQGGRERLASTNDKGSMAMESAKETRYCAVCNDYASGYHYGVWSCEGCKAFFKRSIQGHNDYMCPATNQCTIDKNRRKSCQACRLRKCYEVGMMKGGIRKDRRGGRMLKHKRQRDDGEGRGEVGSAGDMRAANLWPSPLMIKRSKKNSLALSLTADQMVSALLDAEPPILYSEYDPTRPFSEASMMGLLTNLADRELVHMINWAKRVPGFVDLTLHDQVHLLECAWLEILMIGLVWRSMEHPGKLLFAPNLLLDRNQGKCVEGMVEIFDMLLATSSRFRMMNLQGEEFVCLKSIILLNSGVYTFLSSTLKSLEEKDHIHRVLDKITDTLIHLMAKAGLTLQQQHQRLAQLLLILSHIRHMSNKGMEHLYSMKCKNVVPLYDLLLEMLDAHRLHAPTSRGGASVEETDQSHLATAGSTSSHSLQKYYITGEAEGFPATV", "experiment": "ER transcription assay (MCF7 cells), ERE-luciferase reporter", "type": "cell-based", "conditions": "MCF7 cells, ER reporter gene, 0.1 nM 17β estradiol, 24 hours; read-out: MCF7 IC50 (inflection point of the inhibition of transcription in MCF7 cells)", "description": "ER Transcription Assay (MCF7 Cells)\nThe ER transcription assay is a reporter assay that is based on the ability of ER to induce transcription from a luciferase reporter gene containing estrogen response elements (EREs) in the promoter/enhancer region. When the reporter gene is transfected in MCF7 cells (containing endogenous ER), transcription is reflected by the level of luciferase expression.\nA day before transfection, cells are split into a T75 flask at a cell density of 300,000 cells/mL (10 mL total) and allowed to attach overnight in a humidified CO2 incubator at 37° C.\nApproximately 20 ug DNA is mixed in OptiMEM (Invitrogen) to a total volume of 650 μL. Following incubation, the OptiMEM-DNA mixture is added to the OptiMEM-Lipofectin mix and incubated for 15 minutes at 37° C. The DNA-Lipofectin mixture is then added directly to the T75 flask and the flask is returned to the incubator.\nAfter overnight incubation, compound is added to individual wells of a 96-well plate in a 10 μL volume of media at 10× concentration along with 17β estradiol whose final concentration is 0.1 nM. Normally, DMSO (used as a vehicle) is included to achieve a final concentration of 0.1% when added to the cells. Transfected cells are trypsinized, resuspended in DMEM/F12/10% charcoal-stripped serum and added to the 96-well plate at 25,000 cells/well in 90 μL of media. The plate is then returned to the incubator for 24 hours.\nAfter incubation with compounds for 24 hours, Firefly and Renilla luciferase activities are measured to determine ER transcriptional activity. Media is removed from 96-well plates by decanting and blotting on paper towels.\nOne second total read time after a one second delay.\nOne second total read time after one second delay. If Firefly luciferase signal is high, Renilla assay must be done an hour after the Firefly assay due to incomplete squelching of Firefly signal.\nThe data describing the antagonist and degradation properties for the examples is compiled in table 10. The column titled MCF7 IC50 reports the inflection point of the inhibition of transcription in MCF7 cells as described above. Percentage ERα remaining reports the remaining ERα protein measured at 10 μM concentration of the ligand as described above. The column ERα IC50 reports the inflection point of the degradation in response to the ligand concentration."}
{"smiles": "Cc1nnc(/C=C/c2ccc(Oc3c(-c4ccc(F)cc4C)sc4cc(O)ccc34)cc2)[nH]1", "note": "[Example 49, (E)-2-(4-fluoro-2-methylphenyl)-3-(4-(2-(5-methyl-4H-1,2,4-triazol-3-yl)vinyl)phenoxy)benzo[b]thiophen-6-ol]", "pIC50": 7.39}
{"smiles": "O=C(O)/C=C/c1ccc(Oc2c(-c3ccc(O)cc3)sc3c(F)c(O)c(F)cc23)cc1", "note": "[Example 38, (E)-3-(4-((5,7-difluoro-6-hydroxy-2-(4-hydroxyphenyl)benzo[b]-thiophen-3-yl)oxy)phenyl)acrylic acid]", "pIC50": 6.82}
{"smiles": "CNC(=O)/C=C/c1ccc(Oc2c(-c3ccc(O)cc3)sc3cc(O)ccc23)cc1", "note": "[Example 66, (E)-3-(4-((6-hydroxy-2-(4-hydroxyphenyl)benzo-[b]thiophen-3-yl)oxy)phenyl)-N-methylacrylamide]", "pIC50": 7.28}
{"smiles": "COC(=O)/C=C/c1ccc(Oc2c(-c3ccc(F)cc3)sc3cc(O)ccc23)cc1", "note": "[Example 36, (E)-methyl 3-(4-((2-(4-fluorophenyl)-6-hydroxybenzo[b]thiophen-3-yl)oxy)phenyl)-acrylate]", "pIC50": 6.86}
{"smiles": "CCc1ccccc1-c1sc2cc(O)ccc2c1Oc1ccc(/C=C/C(=O)O)cc1", "note": "[Example 18, (E)-3-(4-((2-(2-ethylphenyl)-6-hydroxybenzo[b]-thiophen-3-yl)oxy)phenyl)-acrylic acid]", "pIC50": 7.44}
{"smiles": "C[C@H](O)c1ccccc1-c1sc2cc(O)ccc2c1Oc1ccc(/C=C/C(=O)O)cc1", "note": "[Example 25, (S,E)-3-(4-((6-hydroxy-2-(2-(1-hydroxyethyl)phenyl)-benzo[b]thiophen-3-yl)oxy)phenyl)acrylic acid]", "pIC50": 6.75}
{"smiles": "CC(C)c1ccccc1-c1sc2cc(O)ccc2c1Oc1ccc(/C=C/C(=O)O)cc1", "note": "[Example 4, (E)-3-(4-((6-hydroxy-2-(2-isopropylphenyl)benzo[b]thiophen-3-yl)oxy)phenyl)acrylic acid]", "pIC50": 8.22}
{"smiles": "Cc1cc(/C=C/C(=O)O)ccc1Oc1c(-c2ccc(O)cc2)sc2cc(O)ccc12", "note": "[Example 57, (E)-3-(4-((6-hydroxy-2-(4-hydroxyphenyl)-benzo[b]thiophen-3-yl)oxy)-3-methylphenyl)acrylic acid]", "pIC50": 5.99}
{"smiles": "COc1ccc(-c2sc3cc(O)ccc3c2Oc2ccc(/C=C/C(=O)O)cc2)cc1", "note": "[Example 26, (E)-3-(4-((6-hydroxy-2-(4-methoxyphenyl)benzo[b]thiophen-3-yl)oxy)phenyl)acrylic acid]", "pIC50": 6.19}
{"smiles": "CCCc1nnc(/C=C/c2ccc(Oc3c(-c4ccc(F)cc4C)sc4cc(O)ccc34)cc2)o1", "note": "[Example 47, (E)-2-(4-fluoro-2-methylphenyl)-3-(4-(2-(5-propyl-1,3,4-oxadiazol-2-yl)vinyl)phenoxy)benzo [b]thiophen-6-ol]", "pIC50": 6.95}
{"smiles": "CN(c1ccc(/C=C/C(=O)O)cc1)c1c(-c2ccc(O)cc2)sc2cc(O)ccc12", "note": "[Example 30, (E)-3-(4-((6-hydroxy-2-(4-hydroxyphenyl)benzo[b]thiophen-3-yl)(methyl)amino)phenyl)acrylic acid]", "pIC50": 5.47}
{"smiles": "Cc1ccc(C)c(-c2sc3cc(O)ccc3c2Oc2ccc(/C=C/C(=O)O)cc2)c1", "note": "[Example 14, (E)-3-(4-((2-(2,5-dimethylphenyl)-6-hydroxybenzo[b]-thiophen-3-yl)oxy)phenyl)-acrylic acid]", "pIC50": 6.62}
{"smiles": "Cc1ccccc1-c1sc2cc(O)ccc2c1Oc1ccc(/C=C/C(=O)O)cc1", "note": "[Example 5, (E)-3-(4-((6-hydroxy-2-(o-tolyl)benzo-[b]thiophen-3-yl)oxy)-phenyl)acrylic acid]", "pIC50": 7.05}
{"smiles": "O=C(O)/C=C/c1ccc(Oc2c(-c3ccc(C(F)(F)F)cc3)sc3cc(O)ccc23)cc1", "note": "[Example 3, (E)-3-(4-((6-hydroxy-2-(4-(trifluoromethyl)phenyl)benzo[b]thiophen-3-yl)oxy)phenyl)acrylic acid]", "pIC50": 6.03}
{"smiles": "Cc1cc(-c2sc3cc(O)ccc3c2Oc2ccc(/C=C/C(=O)O)cc2)ccc1O", "note": "[Example 61, (E)-3-(4-((6-hydroxy-2-(4-hydroxy-3-methylphenyl)benzo[b]-thiophen-3-yl)oxy)phenyl)acrylic acid]", "pIC50": 6.49}
{"smiles": "O=C(O)/C=C/c1ccc(Oc2c(-c3ccccc3C(F)(F)F)sc3cc(O)ccc23)cc1", "note": "[Example 8, (E)-3-(4-((6-hydroxy-2-(2-(trifluoromethyl)-phenyl)benzo[b]-thiophen-3-yl)oxy)phenyl)-acrylic acid]", "pIC50": 7.64}
{"smiles": "O=C(O)/C=C/c1ccc(Oc2c(-c3ccc(O)c(F)c3)sc3cc(O)ccc23)cc1", "note": "[Example 40, (E)-3-(4-((2-(3-fluoro-4-hydroxyphenyl)-6-hydroxybenzo[b]thiophen-3-yl)oxy)phenyl)acrylic acid]", "pIC50": 6.37}
{"smiles": "O=C(O)/C=C/c1ccc(Oc2c(-c3ccc(Cl)cc3)sc3cc(O)ccc23)cc1", "note": "[Example 6, (E)-3-(4-((2-(4-chlorophenyl)-6-hydroxybenzo[b]-thiophen-3-yl)oxy)phenyl)-acrylic acid]", "pIC50": 5.51}
{"smiles": "CNC(=O)/C=C/c1ccc(Oc2c(-c3ccc(F)cc3)sc3cc(O)ccc23)cc1", "note": "[Example 67, (E)-3-(4-((2-(4-fluorophenyl)-6-hydroxybenzo[b]thiophen-3-yl)oxy)phenyl)-N-methylacrylamide]", "pIC50": 6.43}
{"smiles": "O=C(O)/C=C/c1ccc(Oc2c(-c3ccc(OC(F)(F)F)cc3)sc3cc(O)ccc23)cc1", "note": "[Example 59, (E)-3-(4-((6-hydroxy-2-(4-(trifluoromethoxy)-phenyl)benzo[b]thiophen-3-yl)oxy)phenyl)-acrylic acid]", "pIC50": 5.90}
{"smiles": "O=C(/C=C/c1ccc(Oc2c(-c3ccc(O)cc3)sc3cc(O)ccc23)cc1)NCCC(F)(F)F", "note": "[Example 31, (E)-3-(4-((6-hydroxy-2-(4-hydroxyphenyl)benzo[b]thiophen-3-yl)oxy)phenyl)-N-(3,3,3-trifluoropropyl)acrylamide]", "pIC50": 8.00}
{"smiles": "COC(=O)/C=C/c1ccc(Oc2c(-c3ccc(O)cc3)sc3c(F)c(O)c(F)cc23)cc1", "note": "[Example 37, (E)-methyl 3-(4-((5,7-difluoro-6-hydroxy-2-(4-hydroxyphenyl)-benzo[b]thiophen-3-yl)oxy)phenyl)acrylate]", "pIC50": 7.39}
{"smiles": "CN(C)Cc1ccccc1-c1sc2cc(O)ccc2c1Oc1ccc(/C=C/C(=O)O)cc1", "note": "[Example 77, (E)-3-(4-((2-(2-((dimethylamino)methyl)phenyl)-6-hydroxybenzo[b]thiophen-3-yl)oxy)phenyl)acrylic acid]", "pIC50": 7.40}
{"smiles": "NC(=O)/C=C/c1ccc(Oc2c(-c3ccc(O)cc3)sc3cc(O)ccc23)cc1", "note": "[Example 64, (E)-3-(4-((6-hydroxy-2-(4-hydroxyphenyl)-benzo[b]thiophen-3-yl)oxy)phenyl)acrylamide]", "pIC50": 7.40}
{"smiles": "Cn1nnc(/C=C/c2ccc(Oc3c(-c4ccc(O)cc4)sc4cc(O)ccc34)cc2)n1", "note": "[Example 55, (E)-2-(4-hydroxyphenyl)-3-(4-(2-(2-methyl-2H-tetrazol-5-yl)vinyl)-phenoxy)benzo[b]-thiophen-6-ol]", "pIC50": 8.52}
{"smiles": "CCCn1nnnc1/C=C/c1ccc(Oc2c(-c3ccc(F)cc3C)sc3cc(O)ccc23)cc1", "note": "[Example 53, (E)-2-(4-fluoro-2-methylphenyl)-3-(4-(2-(1-propyl-1H-tetrazol-5-yl)vinyl)phenoxy) benzo[b]thiophen-6-ol]", "pIC50": 6.49}
{"smiles": "C/C(=C\\c1ccc(Oc2c(-c3ccc(O)cc3)sc3cc(O)ccc23)cc1)C(=O)O", "note": "[Example 28, (E)-3-(4-((6-hydroxy-2-(4-hydroxyphenyl)benzo[b]thiophen-3-yl)oxy)phenyl)-2-methylacrylic acid]", "pIC50": 6.05}
{"smiles": "C/C(=C\\C(=O)O)c1ccc(Oc2c(-c3ccc(O)cc3)sc3cc(O)ccc23)cc1", "note": "[Example 62, (E)-3-(4-((6-hydroxy-2-(4-hydroxyphenyl)-benzo[b]thiophen-3-yl)oxy)phenyl)but-2-enoic acid]", "pIC50": 6.50}
